In brackets after ≈: the same amount, converted by molar mass. Where two headings read alike, the source gives them in different places. Marks after values point to notes of the source that are not given here.
Experiments:
Salmonella Javiana = test: Dose-response assay (MBC) on Salmonella serovars; assay type: cell-based, Salmonella enterica
[1] = tested on: S. Typhimurium cell surface; test: Scanning electron microscopy (SEM); assay type: cell-based, Salmonella enterica subsp. enterica serovar Typhimurium; conditions: 5X MBC for 3 hrs, compared to DMSO control
Experimental: Processing of the samples for SEM was performed with the same samples as above and as previously described. Briefly, one volume of bacterial suspension was mixed with one volume of fixative (3% glutaraldehyde, 1% paraformaldehyde in 0.1 M potassium phosphate buffer pH 7.2), and incubated for 2 hrs at 4 °C. Fixed cells were centrifuged for 5 min at 1,200 g, washed twice with 1X PBS, and resuspended into 1% osmium tetroxide for 1 hr at room temperature in the dark, followed by serial dehydration of the sample in ethanol and platinum splatter-coating. Visualization and imaging of the samples was performed using a Hitachi S-4700 scanning electron microscope.

Salmonella Newport = test: Dose-response assay (MBC) on Salmonella serovars; assay type: cell-based; conditions: Salmonella enterica; serovar Newport, M9 broth
[2] = tested on: S. Typhimurium cell content; test: Loss of 260 nm absorbing materials; assay type: cell-based, Salmonella enterica subsp. enterica serotype Typhimurium; conditions: 1 hr, lethal dose (5X MBC), compared to 1% DMSO control
Experimental: Figure S2. Estimation of the membrane permeability of Salmonella enterica subsp. enterica serotype Typhimurium strain JSG626 after small molecule (SM) treatment. (A) Crystal […]
Treatments were normalized based on 10 μg/ml of crystal violet solution (no uptake […]
different than the 1% DMSO control (P<0.01); n= 9. (B) Loss of 260 nm absorbing materials from S. Typhimurium cell content. 260 nm absorbing materials were measured […]
standard deviation; *: the amount of 260 nm absorbing material in supernatant was […]
Both experiments were performed as previously described (1).
(also on this page, place not known: updtae (%) (ng/µl) Crystal violet 260 nm absorbing material) […]

[3] = tested on: Salmonella enterica subsp. enterica serotype Typhimurium; test: Checkerboard assay, SM and antibiotic combinations; assay type: cell-based; conditions: for MBC: Salmonella enterica, TYPHIMURIUM, SM alone, read-out: SM MBCalone; for Reduction of cefeprime MBC / Reduction of meropenem MBC: sub-lethal concentration of SM
Experimental: The potentiation effect of several antibiotics, commonly used to control Salmonella, was studied in a checkerboard assay. […] The MBC of each antibiotic was determined in M9 medium prior the experiment using a dose-response assay, as described above. For potentiation studies, 100 μl of a S. […] The MBC of each antibiotic was determined as described in the dose-response assay. Bacteria challenged with SMs or antibiotics alone at the same concentrations were used to determine the antibiotic-SM combination effects. […] Further, the bacterial suspension was plated on an agar medium and incubated at 37 °C for 36 hrs. The antibiotic-SM combination effect was calculated based on the determination of the fractional bactericidal concentration (FBC) as previously described[66],[67].

Salmonella Heidelberg = test: Dose-response assay (MBC) on Salmonella serovars; assay type: cell-based; conditions: Salmonella enterica; serovar Heidelberg, M9 broth
[4] = tested on: Campylobacter jejuni 81–176; test: Activity spectrum on foodborne pathogens; assay type: cell-based; conditions: 200 µM
chicken cecal microbiota = test: Cecal microbiota, 16S rRNA sequencing; assay type: in vivo; conditions: compared to the DMSO group, P < 0.01
[5] = tested on: S. Typhimurium LT2 wild-type (WT) strain; test: Dose-response assay (MIC and MBC determination) in M9 broth; assay type: cell-based, Salmonella enterica subsp. enterica serovar Typhimurium; conditions: 12 hrs at 37 °C, read-out: MBC (minimal bactericidal concentration)
Experimental: Typhimurium using high-throughput screening assay in a 96-well plate format. […] Plates were incubated in a Sunrise Tecan kinetic microplate reader for 12 hrs at 37 °C and the optical density (OD) was measured at 600 nm. The percentage of growth inhibition was calculated as: […]. Cultures from wells showing no turbidimetric increase were transferred onto a XLT4 agar plate. Plates were incubated at 37 °C for 36 hrs. […] S. Typhimurium was challenged with a determined concentration of SM as described in the primary screen.

[6] = tested on: avian Mycoplasma gallisepticum; test: Activity spectrum on avian pathogens; assay type: cell-based; conditions: 100 µM, unpublished data
[7] = tested on: S. Typhimurium in infected Caco-2, HD11, and THP-1 cell lines; test: S. Typhimurium survival in infected cell lines, summary over lines; assay type: cell-based, Salmonella enterica subsp. enterica serotype Typhimurium; conditions: over the three cell lines
Experimental: The ability of four SMs to clear S. Typhimurium was evaluated using three cell lines (Caco-2 cells, HD11, and THP-1 cells) as previously described. A multiplicity of infection (MOI) of 10 was used. Infected cells were treated with 1 µl of SMs (final concentration ranged between 100 µM and 6.25 µM) and incubated at 37 °C for 24 hrs in humidified, 5% CO2 incubator. Following incubation, cells were washed once with 1X PBS, lysed with 0.1% Triton-100X, serial ten-fold diluted in 1X PBS, and plated on agar plate. Plates were incubated at 37 °C for 24 hrs to determine the intracellular bacteria. Cells not infected and not treated, and cells infected and treated with 2% DMSO were used as controls.

Salmonella Albany = test: Dose-response assay (MBC) on Salmonella serovars; assay type: cell-based; conditions: Salmonella enterica; serovar Albany, M9 broth
Salmonella Anatum = test: Dose-response assay (MBC) on Salmonella serovars; assay type: cell-based; conditions: Salmonella enterica; serovar Anatum, M9 broth
Salmonella Braenderup = test: Dose-response assay (MBC) on Salmonella serovars; assay type: cell-based; conditions: Salmonella enterica; serovar Braenderup, M9 broth
Lactobacillus brevis = test: Growth of probiotic bacteria at 200 µM; assay type: cell-based; conditions: data not shown
Bifidobacterium longum = test: Growth of probiotic bacteria at 200 µM; assay type: cell-based; conditions: data not shown
[8] = tested on: Lactobacillus rhamnosus GG; test: Growth of probiotic bacteria at 200 µM; assay type: cell-based; conditions: data not shown
[9] = tested on: PhoP regulon in S. Typhimurium; set-up: method as in PubChem bioassay AID #1863, #1981, #2253, and #2401; conditions: ref PubChem bioassay AID #1863, #1981, #2253, and #2401; cited from earlier work
[10] = SM combined with nalidixic acid

Compound	MBC (Salmonella Javiana) [µM]	Cell surface phenotype in SEM [1]	MBC (Salmonella Newport) [µM]	Increase in 260 nm-absorbing material [2] [fold]	SM MBCcombined ([3]; SM combined with cefotaxime)	SM MBCcombined ([3]; SM combined with erythromycin)	MBC [3] [µM]	Reduction of cefeprime MBC [3]	Reduction of meropenem MBC [3] [fold]	MBC (Salmonella Heidelberg) [µM]	Salmonella OTUs in ceca (chicken cecal microbiota)	MBC ([5]; Salmonella enterica) [µM]	Effect on Mycoplasma gallisepticum [6]	MBC (Salmonella Albany) [µM]	SM MBCcombined [3, 10]	MBC [5] [µM]	further results
CC1CCC(C(C)C)C(OC(=O)Cn2c[n+](CC(=O)OC3CC(C)CCC3C(C)C)c3ccccc32)C1 (stereo not drawn) [SM1]	100	distorted	100	2.18	50 µM	50 µM	50	at least 5 fold	5	100	reduction	50	–	–	–	–	Effect on Campylobacter jejuni 81–176 [4]: lethal
CCCCCCCCCCCCCCCC[n+]1ccn(CC#N)c1 [SM3]	25	–	50	7.17	25^c μM	25^c μM	25	at least 5 fold	2.5	50	–	25	lethal	25	25^c μM	25	Concentration clearing internalized Salmonella [7]: 50 µM; MBC (Salmonella Anatum): 25 µM; MBC (Salmonella Braenderup): 25 µM
CCOc1cc(/C=N/N=C(N)N)ccc1OCc1ccc(Cl)cc1 [SM5]	50 (≈ 17.3 µg/mL)	outer membrane vesicles of approximately 100 to 300 nm diameter	50 (≈ 17.3 µg/mL)	5.25	25^c μM	25^c μM	25	–	–	50 (≈ 17.3 µg/mL)	reduction	25 (≈ 8.67 µg/mL)	lethal	100 (≈ 34.7 µg/mL)	25^c μM	25 (≈ 8.67 µg/mL)	Effect on growth of Lactobacillus brevis (Lactobacillus brevis): did not affect the growth; Effect on growth of Bifidobacterium longum (Bifidobacterium longum): did not affect the growth; Effect on growth of Lactobacillus rhamnosus GG [8]: did not affect the growth; SM MBCcombined ([3]; SM combined with cefeprime): 25^c μM; SM MBCcombined ([3]; SM combined with ciprofloxacin at the concentration in the cell before): 20^b μM; SM MBCcombined ([3]; SM combined with meropenem): 25^c μM; Activity on the PhoP regulon [9]: direct or indirect inhibitor
